Results from the supplement of paper PMC10307832.

Tests used:
Assay in all cases: relative viability (nuclei count vs DMSO), 5 days (fraction); higher = more cells survive
NCI-H23 = test system: NCI-H23
Method in brief: (§1)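 Lung cancer cell lines were pin-tool dosed in 1536-well plates on the day after seeding, with either a lone drug or a fixed anchor-drug dose plus five library-drug doses (not always all listed) in √10 steps. Nuclei were counted on 4× images after 5 days. Relative viability is the ratio of treated-well to vehicle-well nuclei counts, with each value a median of duplicate plates.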

NCI-H596 = test system: NCI-H596
Method in brief: as §1

LK-2 = test system: LK-2
Method in brief: as §1

EKVX = test system: EKVX
Method in brief: as §1

NCI-H2170 = test system: NCI-H2170
Method in brief: as §1

SW 900 = test system: SW 900
Method in brief: as §1

NCI-H520 = test system: NCI-H520
Method in brief: as §1

NCI-H1792 = test system: NCI-H1792
Method in brief: as §1

ChaGo-K-1 = test system: ChaGo-K-1
Method in brief: as §1

COR-L 105 = test system: COR-L 105
Method in brief: as §1

HCC-366 = test system: HCC-366
Method in brief: as §1

LOU-NH91 = test system: LOU-NH91
Method in brief: as §1

NCI-H1975 = test system: NCI-H1975
Method in brief: as §1

A-427 = test system: A-427
Method in brief: as §1

EMC-BAC-2 = test system: EMC-BAC-2
Method in brief: as §1

NCI-H1734 = test system: NCI-H1734
Method in brief: as §1

NCI-H441 = test system: NCI-H441
Method in brief: as §1

NCI-H1755 = test system: NCI-H1755
Method in brief: as §1

NCI-H1666 = test system: NCI-H1666
Method in brief: as §1

PC-3 [JPC-3] = test system: PC-3 [JPC-3]
Method in brief: as §1

NCI-H1563 = test system: NCI-H1563
Method in brief: as §1

SK-MES-1 = test system: SK-MES-1
Method in brief: as §1

H3255 = test system: H3255
Method in brief: as §1

O=C(O)c1ccc(-c2c[nH]c3ncc(-c4ccccc4)cc23)cc1C1CCCC1 + Nc1nc2[nH]cc(CCc3ccc(C(=O)N[C@@H](CCC(=O)O)C(=O)O)cc3)c2c(=O)[nH]1 [Pemetrexed] (partner 0.2 µM)
relative viability (NCI-H23; first compound 0.04 µM): 0.756
relative viability (NCI-H23; first compound 0.1265 µM): 0.885
relative viability (NCI-H23; first compound 0.4 µM): 0.683
relative viability (NCI-H23; first compound 1.265 µM): 0.66
relative viability (NCI-H596; first compound 0.04 µM): 0.472
relative viability (NCI-H596; first compound 0.1265 µM): 0.53
relative viability (NCI-H596; first compound 0.4 µM): 0.531
relative viability (NCI-H596; first compound 1.265 µM): 0.479
relative viability (LK-2; first compound 0.04 µM): 0.172
relative viability (LK-2; first compound 0.1265 µM): 0.344
relative viability (LK-2; first compound 0.4 µM): 0.317
relative viability (LK-2; first compound 1.265 µM): 0.276
relative viability (EKVX; first compound 0.04 µM): 0.397
relative viability (EKVX; first compound 0.1265 µM): 0.576
relative viability (EKVX; first compound 0.4 µM): 0.376
relative viability (EKVX; first compound 1.265 µM): 0.409
relative viability (NCI-H2170; first compound 0.04 µM): 0.265
relative viability (NCI-H2170; first compound 0.1265 µM): 0.263
relative viability (NCI-H2170; first compound 0.4 µM): 0.247
relative viability (NCI-H2170; first compound 1.265 µM): 0.282
relative viability (SW 900; first compound 0.04 µM): 0.476
relative viability (SW 900; first compound 0.1265 µM): 0.471
relative viability (SW 900; first compound 0.4 µM): 0.451
relative viability (SW 900; first compound 1.265 µM): 0.473
relative viability (NCI-H520; first compound 0.04 µM): 0.789
relative viability (NCI-H520; first compound 0.1265 µM): 0.633
relative viability (NCI-H520; first compound 0.4 µM): 0.655
relative viability (NCI-H520; first compound 1.265 µM): 0.474
relative viability (NCI-H1792; first compound 0.04 µM): 0.713
relative viability (NCI-H1792; first compound 0.1265 µM): 0.968
relative viability (NCI-H1792; first compound 0.4 µM): 1.05
relative viability (NCI-H1792; first compound 1.265 µM): 0.734
relative viability (ChaGo-K-1; first compound 0.04 µM): 0.249
relative viability (ChaGo-K-1; first compound 0.1265 µM): 0.255
relative viability (ChaGo-K-1; first compound 0.4 µM): 0.265
relative viability (ChaGo-K-1; first compound 1.265 µM): 0.264
relative viability (COR-L 105; first compound 0.04 µM): 1.06
relative viability (COR-L 105; first compound 0.1265 µM): 1.19
relative viability (COR-L 105; first compound 0.4 µM): 1.19
relative viability (COR-L 105; first compound 1.265 µM): 1.08
relative viability (HCC-366; first compound 0.04 µM): 0.178
relative viability (HCC-366; first compound 0.1265 µM): 0.203
relative viability (HCC-366; first compound 0.4 µM): 0.149
relative viability (HCC-366; first compound 1.265 µM): 0.187
relative viability (LOU-NH91; first compound 0.04 µM): 0.419
relative viability (LOU-NH91; first compound 0.1265 µM): 0.404
relative viability (LOU-NH91; first compound 0.4 µM): 0.414
relative viability (LOU-NH91; first compound 1.265 µM): 0.435
relative viability (NCI-H1975; first compound 0.04 µM): 0.301
relative viability (NCI-H1975; first compound 0.1265 µM): 0.298
relative viability (NCI-H1975; first compound 0.4 µM): 0.284
relative viability (NCI-H1975; first compound 1.265 µM): 0.28
relative viability (A-427; first compound 0.04 µM): 0.959
relative viability (A-427; first compound 0.1265 µM): 1.06
relative viability (A-427; first compound 0.4 µM): 0.943
relative viability (A-427; first compound 1.265 µM): 0.843
relative viability (EMC-BAC-2; first compound 0.04 µM): 0.451
relative viability (EMC-BAC-2; first compound 0.1265 µM): 0.465
relative viability (EMC-BAC-2; first compound 0.4 µM): 0.479
relative viability (EMC-BAC-2; first compound 1.265 µM): 0.451
relative viability (NCI-H1734; first compound 0.04 µM): 0.413
relative viability (NCI-H1734; first compound 0.1265 µM): 0.43
relative viability (NCI-H1734; first compound 0.4 µM): 0.428
relative viability (NCI-H1734; first compound 1.265 µM): 0.411
relative viability (NCI-H441; first compound 0.04 µM): 0.33
relative viability (NCI-H441; first compound 0.1265 µM): 0.285
relative viability (NCI-H441; first compound 0.4 µM): 0.256
relative viability (NCI-H441; first compound 1.265 µM): 0.235
relative viability (NCI-H1755; first compound 0.04 µM): 0.412
relative viability (NCI-H1755; first compound 0.1265 µM): 0.449
relative viability (NCI-H1755; first compound 0.4 µM): 0.405
relative viability (NCI-H1755; first compound 1.265 µM): 0.436
relative viability (NCI-H1666; first compound 0.04 µM): 0.753
relative viability (NCI-H1666; first compound 0.1265 µM): 0.917
relative viability (NCI-H1666; first compound 0.4 µM): 0.879
relative viability (NCI-H1666; first compound 1.265 µM): 0.809
relative viability (PC-3 [JPC-3]; first compound 0.04 µM): 1.05
relative viability (PC-3 [JPC-3]; first compound 0.1265 µM): 1.18
relative viability (PC-3 [JPC-3]; first compound 0.4 µM): 1.1
relative viability (PC-3 [JPC-3]; first compound 1.265 µM): 1.03
relative viability (NCI-H1563; first compound 0.04 µM): 0.698
relative viability (NCI-H1563; first compound 0.1265 µM): 0.948
relative viability (NCI-H1563; first compound 0.4 µM): 0.789
relative viability (NCI-H1563; first compound 1.265 µM): 0.892
relative viability (SK-MES-1; first compound 0.04 µM): 0.959
relative viability (SK-MES-1; first compound 0.1265 µM): 1.1
relative viability (SK-MES-1; first compound 0.4 µM): 0.941
relative viability (SK-MES-1; first compound 1.265 µM): 0.722
relative viability (H3255; first compound 0.04 µM): 0.485
relative viability (H3255; first compound 0.1265 µM): 0.58
relative viability (H3255; first compound 0.4 µM): 0.622
relative viability (H3255; first compound 1.265 µM): 0.582
